Two molecules from BindingDB's records for doi:10.1073/pnas.0710981105 (Merck Research Laboratories, 2008) can be followed below.

The target in this test is T1, Bile acid receptor (Homo sapiens, UniProt Q96RI1).
T1 sequence (Q96RI1 whole entry): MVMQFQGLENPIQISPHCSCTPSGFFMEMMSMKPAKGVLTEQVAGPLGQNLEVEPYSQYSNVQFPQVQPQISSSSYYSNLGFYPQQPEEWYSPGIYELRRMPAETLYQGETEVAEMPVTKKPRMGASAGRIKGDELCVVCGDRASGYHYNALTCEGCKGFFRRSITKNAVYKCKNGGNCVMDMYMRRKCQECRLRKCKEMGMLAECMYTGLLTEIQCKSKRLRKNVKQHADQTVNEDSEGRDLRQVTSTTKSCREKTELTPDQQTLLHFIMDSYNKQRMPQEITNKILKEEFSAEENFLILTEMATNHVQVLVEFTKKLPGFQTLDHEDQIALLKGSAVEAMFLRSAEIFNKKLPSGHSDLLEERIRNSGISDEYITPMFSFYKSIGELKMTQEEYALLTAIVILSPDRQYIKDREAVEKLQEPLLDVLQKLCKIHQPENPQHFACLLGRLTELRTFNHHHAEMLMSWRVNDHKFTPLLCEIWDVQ
Description: HTRF Coactivator Recruitment Assay. As to conditions: pH 7; 4 °C. As to the method:
To each well of a 96-well assay plate, assay buffer was added containing purified GST-FXR, Eu-labeled anti-GST antibody (Perkin-Elmer), streptavidin-XL665 (Packard Instruments), biotin-tagged SRC-1 fragment. The binding reaction was initiated by the addition of compound.
Background: Time-resolved FRET reads energy transfer from a long-lived donor to a nearby acceptor.

The term EC50 denotes the midpoint of the concentration-response curve. Consider `C[C@]12CCC(C(=O)O)=CC1=CCC1C2CC[C@@]2(C)C1CC[C@@H]2C(=O)c1ccccc1` (some centres not stated) [MFA-2], for which the midpoint of the response, the EC50, lay at 509 nM.

With `C[C@]12CCC(C(=O)O)=CC1=CCC1C2CC[C@@]2(C)C1CC[C@@H]2C(=O)c1ccc(O)cc1` (some centres not stated) [MFA-1], the EC50 turned out to be 16.9 nM.
